From patent publication US20260295053A1, “COMPOUNDS FOR DEGRADATION AND INHIBITION OF KRAS (G12D) PROTEIN” (Shenzhen Ionova Life Science Co., Ltd., priority 2023, published 2026)

Molecular target: T1, KRAS (G12D) (Homo sapiens, UniProt P01116, G12D)
T1 construct: in-cell western with KRAS G12D antibody after 24 h
Experiment: KRAS (G12D) cellular degradation assay in AsPC-1 cells
Assay type: cell-based
Settings: 24 hours, antibody fluorescence (Odyssey CLX), DC50 half-maximal degradation concentration
Experimental: ASPC-1 and PK-59 cellular assays ASPC-1 (ATCC cat. CRL-1682) and PK-59 (Nanjing Cobioer, Cat. No. CBP61184) were used in KRAS cellular degradation, pERK inhibition and proliferation assays. The two cell lines were maintained following vendor's instructions. For monitoring KRAS (G12D) cellular degradation and pERK biomarker inhibition, cells were seeded into a 96-well plate with 22,000 and 16,000 cells/well for assays in ASPC-1 and PK-59, respectively. Cells were incubated at 37° C. with 5% CO2 and cell density was monitored until ^~90% confluency was reached. Compounds were serially diluted at a 1:3 ratio and dispensed into each well at final concentrations ranging from […] to 1.5 nM. After incubation for 24 hours, the culture media were removed and the cells were subjected to fixation, permeabilization and blocking (Intercept blocking buffer, Li-cor). For KRAS (G12D) degradation, the cells were treated with primary antibody (KRAS G12D antibody, Cell Signaling Technologies, Cat. No. CST14429) and for β-actin (β-actin mAb, Beyotime, Cat. No. AF-5001), and followed by secondary antibodies, Anti-rabbit IgG (H+L) (DyLight™ 800 4×PEG Conjugate) or IRDye® 680RD Goat anti-Mouse IgG. For pERK inhibition assay, cells were treated with primary antibodies for pERK (Phospho-p44/42 MAPK (Erk1/2) (Thr202/Tyr204) (D13.14.4E) XP® Rabbit mAb, Cell Signaling Technologies, Cat. No. CST-4370) and β-actin (β-actin mAb, Beyotime, Cat. No. AF-5001), and followed by secondary antibodies, Anti-rabbit IgG (H+L) (DyLight™ 800 4×PEG Conjugate) or IRDye® 680RD Goat anti-Mouse IgG. Fluorescence signals were read on Odyssey CLX instrument. For cell proliferation assays, cells were seeded into a 96-well plate at 3,500 and 800 cells/well for assays in ASPC-1 and PK-59, respectively. Cells were incubated at 37° C. with 5% CO2 for overnight. Compounds were serially diluted at a 1:3 ratio and dispensed into each well at final concentrations ranging from […] to 1.5 nM. After incubation for 6 days, cell viability reagent (CellTiter Glo, Promega, Cat. No. G7573) was added to each well and luminescence was recorded on Molecular Devices Spectramax iD3 instrument. IC50, half-maximal inhibitory concentration for pERK inhibition or cell proliferation, and DC50, half-maximal degradation concentration in KRAS (G12D) cellular degradation were determined by fitting the corresponding dose response curves using GraphPad Prism software.
Wherein “A” means the value <10 nM, “B” means 10 nM<the value <100 nM, “C” means 100 nM<the value <1000 nM, and “D” means the value >1000 nM, in which, the value means the value of DC50 or IC50. NT means not tested.

T1 sequence (P01116 1-188 isoform P01116-2 G12D): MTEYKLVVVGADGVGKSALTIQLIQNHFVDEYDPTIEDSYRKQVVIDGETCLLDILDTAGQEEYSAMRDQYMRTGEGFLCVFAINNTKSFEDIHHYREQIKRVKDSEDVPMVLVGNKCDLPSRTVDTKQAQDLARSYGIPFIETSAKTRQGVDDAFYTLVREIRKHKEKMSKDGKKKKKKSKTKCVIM

Row | SMILES | DC50
1 | CO[C@@H](C)COc1nc(N2C[C@@H]3C[C@H]2CN3)c2cc(C3CC3)c(-c3c(C)c(F)cc4[nH]ncc34)c(OCc3ccc(-c4cn([C@H](C(=O)N5C[C@H](O)C[C@H]5C(=O)N[C@H](C#Cc5cccc6c5ncn6C)CO)C(C)C)nn4)cc3)c2n1 [Example 140, (2S,4R)-1-((2S)-2-(4-(4-(((4-((1S,4S)-2,5-diazabicyclo[2.2.1]heptan-2-yl)-6-cyclopropyl-7-(6-fluoro-5-methyl-1H-indazol-4-yl)-2-((S)-2-methoxypropoxy)quinazolin-8-yl)oxy)methyl)phenyl)-1H-1,2,3-triazol-1-yl)-3-methylbutanoyl)-4-hydroxy-N—((R)-1-hydroxy-4-(1-methyl-1H-benzo[d]imidazol-4-yl)but-3-yn-2-yl)pyrrolidine-2-carboxamide] | 10 to 100 nM
2 | CCn1nccc1-c1ccc([C@@H](NC(=O)[C@@H]2C[C@@H](O)CN2C(=O)[C@H](C(C)C)n2cc(-c3ccc(COc4c(-c5c(C)c(F)cc6[nH]ncc56)c(C5CC5)cc5c(N(C)[C@@H]6CCNC6)nc(O[C@H]6C[C@H](OC)C6)nc45)cc3)nn2)[C@H](C)O)c2c1CC2 [Example 211, (2S,4R)-1-((2S)-2-(4-(4-(((6-cyclopropyl-7-(6-fluoro-5-methyl-1H-indazol-4-yl)-2-((1r,3R)-3-methoxycyclobutoxy)-4-(methyl((R)-pyrrolidin-3-yl)amino)quinazolin-8-yl)oxy)methyl)phenyl)-1H-1,2,3-triazol-1-yl)-3-methylbutanoyl)-N-((1R,2S)-1-(5-(1-ethyl-1H-pyrazol-5-yl)bicyclo[4.2.0]octa-1(6),2,4-trien-2-yl)-2-hydroxypropyl)-4-hydroxypyrrolidine-2-carboxamide] | < 10 nM
3 | CO[C@@H](C)COc1nc(N2C[C@@H]3C[C@H]2CN3)c2cc(C3CC3)c(-c3c(C)c(F)cc4[nH]ncc34)c(OCc3ccc(-c4cn([C@H](C(=O)N5C[C@H](O)C[C@H]5C(=O)N[C@H](C#Cc5cncc6ncsc56)CO)C(C)C)nn4)cc3)c2n1 [Example 118, (2S,4R)-1-((2S)-2-(4-(4-(((4-((1S,4S)-2,5-diazabicyclo[2.2.1]heptan-2-yl)-6-cyclopropyl-7-(6-fluoro-5-methyl-1H-indazol-4-yl)-2-((S)-2-methoxypropoxy)quinazolin-8-yl)oxy)methyl)phenyl)-1H-1,2,3-triazol-1-yl)-3-methylbutanoyl)-4-hydroxy-N—((R)-1-hydroxy-4-(thiazolo[4,5-c]pyridin-7-yl)but-3-yn-2-yl)pyrrolidine-2-carboxamide] | 10 to 100 nM
4 | CCn1nccc1-c1ccc([C@H](CO)NC(=O)[C@@H]2C[C@@H](O)CN2C(=O)[C@H](C(C)C)n2cc(-c3ccc(COc4c(-c5c(C)c(F)cc6[nH]ncc56)c(C5CC5)cc5c(N6CCC(N)CC6)nc(OC[C@H](C)OC)nc45)cc3)nn2)cc1 [Example 225, (2S,4R)-1-((2S)-2-(4-(4-(((4-(4-aminopiperidin-1-yl)-6-cyclopropyl-7-(6-fluoro-5-methyl-1H-indazol-4-yl)-2-((S)-2-methoxypropoxy)quinazolin-8-yl)oxy)methyl)phenyl)-1H-1,2,3-triazol-1-yl)-3-methylbutanoyl)-N—((R)-1-(4-(1-ethyl-1H-pyrazol-5-yl)phenyl)-2-hydroxyethyl)-4-hydroxypyrrolidine-2-carboxamide] | < 10 nM
5 | CCn1nccc1-c1ccc([C@H](CO)NC(=O)[C@@H]2C[C@@H](O)CN2C(=O)[C@H](C(C)C)n2cc(-c3ccc(COc4c(-c5c(C)c(F)cc6[nH]ncc56)c(C5CC5)cc5c(N6CCCNCC6)nc(OC[C@H](C)OC)nc45)cc3)nn2)c2c1CC2 [Example 224, (2S,4R)-1-((2S)-2-(4-(4-(((6-cyclopropyl-4-(1,4-diazepan-1-yl)-7-(6-fluoro-5-methyl-1H-indazol-4-yl)-2-((S)-2-methoxypropoxy)quinazolin-8-yl)oxy)methyl)phenyl)-1H-1,2,3-triazol-1-yl)-3-methylbutanoyl)-N—((R)-1-(5-(1-ethyl-1H-pyrazol-5-yl)bicyclo[4.2.0]octa-1(6),2,4-trien-2-yl)-2-hydroxyethyl)-4-hydroxypyrrolidine-2-carboxamide] | < 10 nM

Continued, values first:

Row | DC50 | SMILES
6 | > 1000 nM | CO[C@@H](C)COc1nc(N2CC3CCC(C2)N3)c2cc(C3CC3)c(-c3c(C)c(F)cc4[nH]ncc34)c(OCc3ccc(-c4cn([C@H](C(=O)N5C[C@H](O)C[C@H]5C(=O)N[C@@H](CO)c5ccc(-c6scnc6C)cc5)C(C)C)nn4)cc3)c2n1 (single isomer, unassigned) [Example 12B]
7 | < 10 nM | CCn1nccc1-c1ccc([C@H](CO)NC(=O)[C@@H]2C[C@@H](O)CN2C(=O)[C@H](C(C)C)n2cc(-c3ccc(COc4c(-c5c(C)c(F)c(F)c6[nH]ncc56)c(C5CC5)cc5c(N6C[C@@H]7C[C@H]6CN7)nc(OC6CCC7(CC6)COC7)nc45)cc3)nn2)cc1 [Example 110, (2S,4R)-1-((2S)-2-(4-(4-(((2-((2-oxaspiro[3.5]nonan-7-yl)oxy)-4-((1S,4S)-2,5-diazabicyclo[2.2.1]heptan-2-yl)-6-cyclopropyl-7-(6,7-difluoro-5-methyl-1H-indazol-4-yl)quinazolin-8-yl)oxy)methyl)phenyl)-1H-1,2,3-triazol-1-yl)-3-methylbutanoyl)-N—((R)-1-(4-(1-ethyl-1H-pyrazol-5-yl)phenyl)-2-hydroxyethyl)-4-hydroxypyrrolidine-2-carboxamide]
8 | 10 to 100 nM | CCn1nccc1-c1ccc([C@H](CO)NC(=O)[C@@H]2C[C@@H](O)CN2C(=O)[C@H](C(C)C)n2cc(-c3ccc(COc4c(-c5c(C)c(F)cc6[nH]ncc56)c(C5CC5)cc5c(N6CC7CNCC7C6)nc(OC[C@H](C)OC)nc45)cc3)nn2)cc1 (stereo partly drawn) [Example 227, (2S,4R)-1-((2S)-2-(4-(4-(((6-cyclopropyl-7-(6-fluoro-5-methyl-1H-indazol-4-yl)-4-(hexahydropyrrolo[3,4-c]pyrrol-2(1H)-yl)-2-((S)-2-methoxypropoxy)quinazolin-8-yl)oxy)methyl)phenyl)-1H-1,2,3-triazol-1-yl)-3-methylbutanoyl)-N—((R)-1-(4-(1-ethyl-1H-pyrazol-5-yl)phenyl)-2-hydroxyethyl)-4-hydroxypyrrolidine-2-carboxamide]
9 | 10 to 100 nM | CO[C@@H](C)COc1nc(N2C[C@@H]3C[C@H]2CN3)c2cc(C3CC3)c(-c3c(C)c(F)cc4[nH]ncc34)c(OCc3ccc(-c4cn([C@H](C(=O)N5C[C@H](O)C[C@H]5C(=O)N[C@H](C#Cc5cnccc5Cl)CO)C(C)C)nn4)cc3)c2n1 [Example 108, (2S,4R)-1-((2S)-2-(4-(4-(((4-((1S,4S)-2,5-diazabicyclo[2.2.1]heptan-2-yl)-6-cyclopropyl-7-(6-fluoro-5-methyl-1H-indazol-4-yl)-2-((S)-2-methoxypropoxy)quinazolin-8-yl)oxy)methyl)phenyl)-1H-1,2,3-triazol-1-yl)-3-methylbutanoyl)-N—((R)-4-(4-chloropyridin-3-yl)-1-hydroxybut-3-yn-2-yl)-4-hydroxypyrrolidine-2-carboxamide]
